Laboratory results: patent US20070128217A1 (priority 2003, published 2007)

Columns and labels:
[1] = tested on: control sera (pooled serum of ten healthy LUMC hospital workers; commercial negative donor pooled serum from the Dutch bloodbank); type: binding, human; design: Binding of Control serum LUMC to linear peptides / Binding of Control serum Blood-bank to linear peptides / Binding of Control serum LUMC to looped peptides / Binding of Control Serum Blood-Bank to Looped peptides / Binding of Control serum LUMC to linear peptides of the protein M of SARS-CoV Urbani / Binding of Control serum Blood-bank to linear peptides of the protein M of SARS-CoV Urbani / Binding of Control serum LUMC to looped peptides of the protein M of SARS-CoV Urbani / Binding of Control Serum Blood-Bank to Looped peptides of the protein M of SARS-CoV Urbani: unit not given here
[2] = tested on: antibodies in sera from SARS patients (sera 1a, 1b, 2, 6, 37, 62, London, SARS-yellow, SARS-green); type: binding, human; design: Binding of serum 6 to linear peptides of protein X1 of SARS-CoV Urbani / Binding of serum 37 to linear peptides of protein X1 of SARS-CoV Urbani / Binding of serum 6 to looped/cyclic peptide (PEPSCAN-ELISA) / Binding of serum 37 to looped/cyclic peptide (PEPSCAN-ELISA) / Binding of serum 37 to looped/cyclic peptides of protein X1 of SARS-CoV Urbani / Binding of serum 6 to linear peptides of protein X2 / Binding of serum 37 to linear peptides of protein X2 / Binding of serum 37 to looped/cyclic peptides of protein X2 of SARS-CoV Urbani / Binding of serum 6 to linear peptides of protein M of SARS-CoV Urbani / Binding of serum 37 to linear peptides of protein M of SARS-CoV Urbani / Binding of serum 6 to looped/cyclic peptides of protein M of SARS-CoV Urbani / Binding of serum 37 to looped/cyclic peptides of protein M of SARS-CoV Urbani / Binding of serum 6 to linear peptides of protein X3 of SARS-CoV Urbani / Binding of serum 37 to linear peptides of protein X3 of SARS-CoV Urbani / Binding of serum 37 to looped/cyclic peptides of protein X3 of SARS-CoV Urbani / Binding of serum 6 to linear peptides of protein X4 of SARS-CoV Urbani / Binding of serum 37 to linear peptides of protein X4 of SARS-CoV Urbani / Binding of serum 37 to looped/cyclic peptides of protein X4 of SARS-CoV Urbani / Binding of serum 6 to linear peptides of protein X5 of SARS-CoV Urbani / Binding of serum 37 to linear peptides of protein X5 of SARS-CoV Urbani / Binding of serum 37 to looped/cyclic peptides of protein X5 of SARS-CoV Urbani / Binding of serum 6 to linear peptides of protein N of SARS-CoV Urbani / Binding of serum 37 to linear peptides of protein N of SARS-CoV Urbani / Binding of serum 6 to linear peptide (PEPSCAN-ELISA) / Binding of serum 1a to looped/cyclic peptides of protein N of SARS-CoV Urbani / Binding of serum 1b to looped/cyclic peptides of protein N of SARS-CoV Urbani / Binding of serum 2 to looped/cyclic peptides of protein N of SARS-CoV Urbani / Binding of serum 6 to looped/cyclic peptides of protein N of SARS-CoV Urbani / Binding of serum 37 to looped/cyclic peptides of protein N of SARS-CoV Urbani / Binding of serum 62 to looped/cyclic peptides of protein N of SARS-CoV Urbani / Binding of serum London to looped/cyclic peptides of protein N of SARS-CoV Urbani / Binding of serum SARS-green to looped/cyclic peptides of protein N of SARS-CoV Urbani: unit not given here
[3] = tested on: rabbit serum obtained by immunizing a rabbit with the SARS-CoV strain Frankfurt 1; type: binding; design: Binding of a rabbit serum to linear peptides / Binding of a rabbit serum to looped peptides / Rabbit serum linear peptides / Rabbit serum looped peptides / Binding of a rabbit serum to linear peptides of protein N of SARS-CoV Urbani (Rabbit serum linear peptides) / Binding of a rabbit serum to looped/cyclic peptides of protein N of SARS-CoV Urbani (Rabbit serum looped peptides): unit not given here

IMLLQFAYSNRNRFL
Binding of Control Serum Blood-Bank to Looped peptides of the protein M of SARS-CoV Urbani [1]: 0.5
Binding of Control serum Blood-bank to linear peptides of the protein M of SARS-CoV Urbani [1]: 0.5
Binding of Control serum LUMC to linear peptides of the protein M of SARS-CoV Urbani [1]: 0.6
Binding of Control serum LUMC to looped peptides of the protein M of SARS-CoV Urbani [1]: 0.6
Binding of serum 1a to linear peptides of protein M of SARS-CoV Urbani [2]: 0.7
Binding of serum 1a to looped/cyclic peptides of protein M of SARS-CoV Urbani [2]: 0.6
Binding of serum 1b to linear peptides of protein M of SARS-CoV Urbani [2]: 0.5
Binding of serum 1b to looped/cyclic peptides of protein M of SARS-CoV Urbani [2]: 0.4
Binding of serum 2 to linear peptides of protein M of SARS-CoV Urbani [2]: 0.4
Binding of serum 2 to looped/cyclic peptides of protein M of SARS-CoV Urbani [2]: 0.6
Binding of serum 6 to linear peptides of protein M of SARS-CoV Urbani [2]: 0.4
Binding of serum 6 to looped/cyclic peptides of protein M of SARS-CoV Urbani [2]: 1.0
Binding of serum 37 to linear peptides of protein M of SARS-CoV Urbani [2]: 0.4
Binding of serum 37 to looped/cyclic peptides of protein M of SARS-CoV Urbani [2]: 0.6
Binding of serum 62 to linear peptides of protein M of SARS-CoV Urbani [2]: 0.3
Binding of serum 62 to looped/cyclic peptides of protein M of SARS-CoV Urbani [2]: 0.5
Binding of serum London to linear peptides of protein M of SARS-CoV Urbani [2]: 0.3
Binding of serum London to looped/cyclic peptides of protein M of SARS-CoV Urbani [2]: 0.6
Binding of serum SARS-green to linear peptides of protein M of SARS-CoV Urbani [2]: 0.4
Binding of serum SARS-green to looped/cyclic peptides of protein M of SARS-CoV Urbani [2]: 0.3
Binding of serum SARS-yellow to linear peptides of protein M of SARS-CoV Urbani [2]: 0.2
Binding of serum SARS-yellow to looped/cyclic peptides of protein M of SARS-CoV Urbani [2]: 0.6
Rabbit serum linear peptides [3]: 0.2
Rabbit serum looped peptides [3]: 0.5

INACRIIMRCWLCWK
Binding of Control Serum Blood-Bank to Looped peptides [1]: 0.7
Binding of Control serum Blood-bank to linear peptides [1]: 0.9
Binding of Control serum LUMC to linear peptides [1]: 0.4
Binding of Control serum LUMC to looped peptides [1]: 0.6
Binding of serum 1a to looped/cyclic peptide (PEPSCAN-ELISA) [2]: 0.6
Binding of serum 1b to looped/cyclic peptide (PEPSCAN-ELISA) [2]: 0.4
Binding of serum 2 to looped/cyclic peptide (PEPSCAN-ELISA) [2]: 0.6
Binding of serum 6 to looped/cyclic peptide (PEPSCAN-ELISA) [2]: 0.6
Binding of serum 37 to looped/cyclic peptide (PEPSCAN-ELISA) [2]: 0.5
Binding of serum 62 to looped/cyclic peptide (PEPSCAN-ELISA) [2]: 0.6
Binding of serum London to looped/cyclic peptide (PEPSCAN-ELISA) [2]: 0.4
Binding of serum SARS-green to looped/cyclic peptide (PEPSCAN-ELISA) [2]: 0.3
Binding of serum SARS-yellow to looped/cyclic peptide (PEPSCAN-ELISA) [2]: 0.5
Recognition of the peptide by sera of SARS-CoV infected individuals, and form (linear, looped/cyclic) in which it is recognized [2]: recognized in linear form
Recognition of the peptide by the rabbit serum [3]: recognized

IQFMMSRRRLLACLC
Binding of Control Serum Blood-Bank to Looped peptides [1]: 0.3
Binding of Control serum Blood-bank to linear peptides [1]: 0.8
Binding of Control serum LUMC to linear peptides [1]: 0.6
Binding of Control serum LUMC to looped peptides [1]: 0.4
Binding of serum 1a to linear peptides of protein X2 [2]: 0.7
Binding of serum 1a to looped/cyclic peptides of protein X2 of SARS-CoV Urbani [2]: 0.4
Binding of serum 1b to linear peptides of protein X2 [2]: 0.5
Binding of serum 1b to looped/cyclic peptides of protein X2 of SARS-CoV Urbani [2]: 0.2
Binding of serum 2 to linear peptides of protein X2 [2]: 0.4
Binding of serum 2 to looped/cyclic peptides of protein X2 of SARS-CoV Urbani [2]: 0.5
Binding of serum 6 to linear peptides of protein X2 [2]: 0.6
Binding of serum 6 to looped/cyclic peptides of protein X2 of SARS-CoV Urbani [2]: 0.3
Binding of serum 37 to linear peptides of protein X2 [2]: 0.6
Binding of serum 37 to looped/cyclic peptides of protein X2 of SARS-CoV Urbani [2]: 0.2
Binding of serum 62 to linear peptides of protein X2 [2]: 0.7
Binding of serum 62 to looped/cyclic peptides of protein X2 of SARS-CoV Urbani [2]: 0.3
Binding of serum London to linear peptides of protein X2 [2]: 0.5
Binding of serum London to looped/cyclic peptides of protein X2 of SARS-CoV Urbani [2]: 0.4
Binding of serum SARS-green to linear peptides of protein X2 [2]: 0.6
Binding of serum SARS-green to looped/cyclic peptides of protein X2 of SARS-CoV Urbani [2]: 0.2
Binding of serum SARS-yellow to linear peptides of protein X2 [2]: 0.8
Binding of serum SARS-yellow to looped/cyclic peptides of protein X2 of SARS-CoV Urbani [2]: 0.5
Binding of a rabbit serum to linear peptides [3]: 0.5
Binding of a rabbit serum to looped peptides [3]: 1.1

IQLSLLKVTAFQHQN
Binding of Control Serum Blood-Bank to Looped peptides [1]: 0.6
Binding of Control serum Blood-bank to linear peptides [1]: 0.4
Binding of Control serum LUMC to linear peptides [1]: 0.7
Binding of Control serum LUMC to looped peptides [1]: 0.6
Binding of serum 1a to linear peptides of protein X2 [2]: 0.5
Binding of serum 1a to looped/cyclic peptides of protein X2 of SARS-CoV Urbani [2]: 0.5
Binding of serum 1b to linear peptides of protein X2 [2]: 0.4
Binding of serum 1b to looped/cyclic peptides of protein X2 of SARS-CoV Urbani [2]: 0.6
Binding of serum 2 to linear peptides of protein X2 [2]: 0.4
Binding of serum 2 to looped/cyclic peptides of protein X2 of SARS-CoV Urbani [2]: 0.3
Binding of serum 6 to linear peptides of protein X2 [2]: 0.5
Binding of serum 6 to looped/cyclic peptides of protein X2 of SARS-CoV Urbani [2]: 0.4
Binding of serum 37 to linear peptides of protein X2 [2]: 0.6
Binding of serum 37 to looped/cyclic peptides of protein X2 of SARS-CoV Urbani [2]: 0.4
Binding of serum 62 to linear peptides of protein X2 [2]: 0.3
Binding of serum 62 to looped/cyclic peptides of protein X2 of SARS-CoV Urbani [2]: 0.6
Binding of serum London to linear peptides of protein X2 [2]: 0.3
Binding of serum London to looped/cyclic peptides of protein X2 of SARS-CoV Urbani [2]: 0.2
Binding of serum SARS-green to linear peptides of protein X2 [2]: 0.2
Binding of serum SARS-green to looped/cyclic peptides of protein X2 of SARS-CoV Urbani [2]: 0.2
Binding of serum SARS-yellow to linear peptides of protein X2 [2]: 0.3
Binding of serum SARS-yellow to looped/cyclic peptides of protein X2 of SARS-CoV Urbani [2]: 0.5
Binding of a rabbit serum to linear peptides [3]: 0.6
Binding of a rabbit serum to looped peptides [3]: 0.5
